ChEMBL document CHEMBL5380809, “Discovery of Novel N-Hydroxy-1,2,4-oxadiazole-5-formamides as ASM Direct Inhibitors for the Treatment of Atherosclerosis” (J Med Chem, 2023)
Active and inactive are the calls of the source. No cut-off for these calls is given here.

Experiments:
[1] = biological target: T1, Sphingomyelin phosphodiesterase (Homo sapiens, UniProt P17405); test: Inhibition of recombinant human aSMase (62 to 628 residues) using HMU-PC as substrate incubated for 2 hrs by fluorescence based assay
T1 sequence (P17405 whole entry): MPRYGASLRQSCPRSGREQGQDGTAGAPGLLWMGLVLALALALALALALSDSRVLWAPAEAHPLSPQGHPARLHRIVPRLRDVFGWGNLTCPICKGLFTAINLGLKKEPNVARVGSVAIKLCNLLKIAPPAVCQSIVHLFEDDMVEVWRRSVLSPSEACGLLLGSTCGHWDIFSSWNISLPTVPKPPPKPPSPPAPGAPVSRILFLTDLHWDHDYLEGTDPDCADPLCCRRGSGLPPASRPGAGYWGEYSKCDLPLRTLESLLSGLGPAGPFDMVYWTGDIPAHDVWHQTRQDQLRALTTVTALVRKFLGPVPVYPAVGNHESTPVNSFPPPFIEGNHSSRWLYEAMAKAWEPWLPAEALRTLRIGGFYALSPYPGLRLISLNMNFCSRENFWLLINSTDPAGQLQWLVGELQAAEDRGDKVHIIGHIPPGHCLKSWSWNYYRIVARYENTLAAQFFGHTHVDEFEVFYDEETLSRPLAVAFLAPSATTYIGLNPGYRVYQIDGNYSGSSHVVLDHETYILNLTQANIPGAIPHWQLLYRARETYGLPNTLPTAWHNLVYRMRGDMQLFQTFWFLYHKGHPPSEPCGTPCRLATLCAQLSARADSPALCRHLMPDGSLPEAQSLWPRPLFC

[2] = Half life in ICR mouse at 1 mg/kg, iv measured for 0.083 to 24 hrs by LC-MS/MS analysis; assay type: ADME, organism-based; settings: in vivo, time 0.083-24 hrs
[3] = Tmax in ICR mouse at 1 mg/kg, iv measured for 0.083 to 24 hrs by LC-MS/MS analysis; assay type: ADME, organism-based; settings: in vivo, time 0.083-24 hrs
[4] = AUC (0 to infinity ) in ICR mouse at 1 mg/kg, iv measured for 0.083 to 24 hrs by LC-MS/MS analysis; assay type: ADME, organism-based; design: time upper 24 hrs, time lower 0.083 hrs, dose 1 mg/kg, route iv; settings: in vivo
[5] = Apparent volume of distribution in ICR mouse at 1 mg/kg, iv measured for 0.083 to 24 hrs by LC-MS/MS analysis; assay type: ADME, organism-based; settings: in vivo, time 0.083-24 hrs, read-out: Vz
[6] = MRT (0 to infinity) in ICR mouse at 1 mg/kg, iv measured for 0.083 to 24 hrs by LC-MS/MS analysis; assay type: ADME, organism-based; settings: in vivo, time 0.083-24 hrs
[7] = Half life in ICR mouse at 10 mg/kg, po measured for 0.083 to 24 hrs by LC-MS/MS analysis; assay type: ADME, organism-based; settings: in vivo, time 0.083-24 hrs
[8] = Tmax in ICR mouse at 10 mg/kg, po measured for 0.083 to 24 hrs by LC-MS/MS analysis; assay type: ADME, organism-based; settings: in vivo, time 0.083-24 hrs
[9] = Cmax in ICR mouse at 10 mg/kg, po measured for 0.083 to 24 hrs by LC-MS/MS analysis; assay type: ADME, organism-based; design: time upper 24 hrs, time lower 0.083 hrs, dose 10 mg/kg, route po; settings: in vivo
[10] = AUC (0 to t) in ICR mouse at 10 mg/kg, po measured for 0.083 to 24 hrs by LC-MS/MS analysis; assay type: ADME, organism-based; design: time upper 24 hrs, time lower 0.083 hrs, dose 10 mg/kg, route po; settings: in vivo
[11] = AUC (0 to infinity) in ICR mouse at 10 mg/kg, po measured for 0.083 to 24 hrs by LC-MS/MS analysis; assay type: ADME, organism-based; design: time lower 0.083 hrs, dose 10 mg/kg, time upper 24 hrs, route po; settings: in vivo
Mus musculus [12] = test: In vivo inhibition of aSMase in C57BL/6 mouse assessed as decrease in liver ceramide level at 6 to 40 mg/kg, ip bid for 1 week by ELISA method; assay type: functional, organism-based; settings: dose 6-40 mg/kg, time 1.0 weeks
Mus musculus [13] = test: In vivo inhibition of aSMase in C57BL/6 mouse assessed as decrease in liver S1P level at 6 to 40 mg/kg, ip bid for 1 week by ELISA method; assay type: functional, organism-based; settings: dose 6-40 mg/kg, time 1.0 weeks
Mus musculus [14] = test: In vivo inhibition of aSMase in C57BL/6 mouse assessed as decrease in liver sphingomyelin level at 6 to 40 mg/kg, ip bid for 1 week by ELISA method; assay type: functional, organism-based; settings: dose 6-40 mg/kg, time 1.0 weeks
Mus musculus [15] = test: In vivo inhibition of aSMase in C57BL/6 mouse assessed as decrease in plasma S1P level at 6 to 40 mg/kg, ip bid for 1 week by ELISA method; assay type: functional, organism-based; settings: dose 6-40 mg/kg, time 1.0 weeks
Mus musculus [16] = test: Antiatherosclerotic activity in high-fat diet fed ApoE-/- mouse assessed as reduction in aortic arch lipid accumulation at 12 to 40 mg/kg, ip bid measured after 8 weeks; assay type: functional, organism-based; settings: dose 12-40 mg/kg
Mus musculus [17] = test: Antiatherosclerotic activity in high-fat diet fed ApoE-/- mouse assessed as reduction in lipid plaque area administered intraperitoneally twice daily measured after 8 weeks by oil red O staining based analysis; assay type: functional, organism-based; settings: dose 12-40 mg/kg, route ip
Mus musculus [18] = test: Antiatherosclerotic activity in high-fat diet fed ApoE-/- mouse assessed as reduction in plasma LDL-C level at 12 to 40 mg/kg, ip bid measured after 8 weeks; assay type: functional, organism-based; settings: dose 12-40 mg/kg
Mus musculus [19] = test: Antiatherosclerotic activity in high-fat diet fed ApoE-/- mouse assessed as reduction in plasma Ox-LDL-C level at 40 mg/kg, ip bid measured after 8 weeks; assay type: functional, organism-based
HUVEC [20] = test: Antiinflammatory activity against HUVEC cells assessed as decrease in Ox-LDL-induced MCP-1 mRNA level at 5 uM measured after 22 hrs by RT-PCR analysis; assay type: functional, cell-based; settings: Homo sapiens
HUVEC [21] = test: Antiinflammatory activity against HUVEC cells assessed as decrease in Ox-LDL-induced IL-6 mRNA level at 5 uM measured after 22 hrs by RT-PCR analysis; assay type: functional, cell-based; settings: Homo sapiens
HUVEC [22] = test: Downregulation of extracellular ceramide level in HUVEC cells upto 5 uM measured after 22 hrs by ELISA method; assay type: functional, cell-based; settings: Homo sapiens
HUVEC [23] = test: Downregulation of extracellular ceramide level in LPS-induced HUVEC cells upto 5 uM measured after 22 hrs by ELISA method; assay type: functional, cell-based; settings: Homo sapiens
HUVEC [24] = test: Upregulation of extracellular sphingomyelin level in Ox-LDL-induced HUVEC cells upto 5 uM measured after 22 hrs by ELISA method; assay type: functional, cell-based; settings: Homo sapiens
HUVEC [25] = test: Downregulation of extracellular ceramide level in Ox-LDL-induced HUVEC cells upto 5 uM measured after 22 hrs by ELISA method; assay type: functional, cell-based; settings: Homo sapiens
HUVEC [26] = test: Effect on extracellular S1P level in HUVEC cells upto 5 uM measured after 22 hrs by ELISA method; assay type: functional, cell-based; settings: Homo sapiens
HUVEC [27] = test: Effect on extracellular S1P level in LPS-induced HUVEC cells upto 5 uM measured after 22 hrs by ELISA method; assay type: functional, cell-based; settings: Homo sapiens
HUVEC [28] = test: Effect on extracellular S1P level in Ox-LDL-induced HUVEC cells upto 5 uM measured after 22 hrs by ELISA method; assay type: functional, cell-based; settings: Homo sapiens
HUVEC [29] = test: Upregulation of intracellular sphingomyelin level in LPS-induced HUVEC cells measured after 22 hrs by ELISA method; assay type: functional, cell-based; settings: Homo sapiens, dose <= 5.0 µM
HUVEC [30] = test: Upregulation of intracellular sphingomyelin level in Ox-LDL-induced HUVEC cells measured after 22 hrs by ELISA method; assay type: functional, cell-based; settings: Homo sapiens, dose <= 5.0 µM
HUVEC [31] = test: Downregulation of intracellular ceramide level in Ox-LDL-induced HUVEC cells at 5 uM measured after 22 hrs by ELISA method; assay type: functional, cell-based; settings: Homo sapiens

IC50 [1]: 1500 nM
half-life [2]: 12 min
Tmax [3]: 4.98 min
AUC(0-inf) [4]: 228 ng·h/mL
Vd [5]: 1.28 L/kg
MRT inf [6]: 5.22 min
half-life [7]: 49.8 min
Tmax [8]: 4.98 min
Cmax [9]: 2760 ng/mL
AUC(0-t) [10]: 805 ng·h/mL
AUC(0-inf) [11]: 809 ng·h/mL
SMILES: O=C(NO)c1nc(-c2ccc(COc3ccc(Br)cc3)cc2)no1
Activity (Mus musculus [12]): Active
Activity (Mus musculus [13]): Active
Activity (Mus musculus [14]): Active
Activity (Mus musculus [15]): inactive
Activity (Mus musculus [16]): Active
Activity (Mus musculus [17]): Dose-Dependent Effect
Activity (Mus musculus [18]): Active
Activity (Mus musculus [19]): Active
Activity (HUVEC [20]): Active
Activity (HUVEC [21]): Active
Activity (HUVEC [22]): Active
Activity (HUVEC [23]): Active
Activity (HUVEC [24]): Active
Activity (HUVEC [25]): Active
Activity (HUVEC [26]): inactive
Activity (HUVEC [27]): inactive
Activity (HUVEC [28]): inactive
Activity (HUVEC [29]): Dose-Dependent Effect
Activity (HUVEC [30]): Dose-Dependent Effect
Activity (HUVEC [31]): Active
